Assay results taken from patent publication US10501479B2, “Benzenesulfonyl-asymmetric ureas and medical uses thereof” (HELSINN HEALTHCARE SA, priority 2016, dated 2019).

target: T1, GHSR-1a (HEK293/GHSR1a cell line) (Homo sapiens, UniProt Q92847); test: Ghrelin antagonist potency (IC50) with calcium FLIPR assay, ghrelin 10 nM; type: cell-based; details: HEK293/GHSR1a, ghrelin 10 nM, read-out: Activity IC50 (ghrelin antagonist potency)
T1 construct: expressed in transfected cells; host or cells: HEK293/GHSR1a cell line
T1 sequence (Q92847 whole entry): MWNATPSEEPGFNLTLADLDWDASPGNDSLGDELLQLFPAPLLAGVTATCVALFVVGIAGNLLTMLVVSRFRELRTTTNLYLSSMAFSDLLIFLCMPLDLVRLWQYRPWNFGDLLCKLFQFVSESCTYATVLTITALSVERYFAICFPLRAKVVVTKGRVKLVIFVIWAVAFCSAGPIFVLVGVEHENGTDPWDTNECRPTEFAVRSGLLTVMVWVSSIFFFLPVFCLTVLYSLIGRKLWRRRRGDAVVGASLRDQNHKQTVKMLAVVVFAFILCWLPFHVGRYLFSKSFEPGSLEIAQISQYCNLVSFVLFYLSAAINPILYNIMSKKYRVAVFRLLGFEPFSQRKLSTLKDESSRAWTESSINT
Method: Evaluation of Ghrelin Agonist (EC50) and Antagonist Potency (IC50) with Calcium FLIPR Assay:
The intracellular calcium assay was carried out in a 384-well format FLIPR™ (Molecular Device) HEK293/GHSR1a cell line. Cells were seeded 24 hr prior to the experiments at an optimal density per well. Preincubation with selected calcium dye lasted for 30-60 min at room temperature or 37° C. Test compounds, dissolved in DMSO, were added at the appropriate time and incubated for 15 min followed by the addition of ghrelin with FlexStation or FLIPR. Relative fluorescence was monitored by the FLIPR™ Molecular Device. EC50 and IC50 values were estimated from dose-response data using GraphPad Prism software. To check for GHSR-1a agonism, the compound was added at t=20 sec. and the calcium response was followed for 2 minutes. To check for GHSR-1a antagonism, the compound and Ghrelin (10 nM) were added to the cells at t=20 sec. and the calcium response was measured for 2 minutes. The potency of the antagonist was calculated by its ability to reduce the ghrelin response. Dose-response curves were made for relevant antagonists.

SMILES | IC50 [nM]
CCc1ccc(Cl)c(C(=O)NC(=O)Nc2ccc(S(=O)(=O)Nc3ccc(CC(C)(C)N)cc3)cc2)c1 [H1254, N-((4-(N-(4-(2-amino-2-methylpropyl)phenyl)sulfamoyl)phenyl)carbamoyl)-2-chloro-5-ethylbenzamide] | 17.2
CCc1ccc(Cl)c(C(=O)NC(=O)Nc2ccc(S(=O)(=O)Nc3ccc4c(c3)CNCC4)cc2)c1 [H1263, 2-chloro-5-ethyl-N-((4-(N-(1,2,3,4-tetrahydroisoquinolin-7-yl)sulfamoyl)phenyl)carbamoyl) benzamide] | 246
C[C@H](NC(=O)Nc1ccc2c(c1)C=C(c1ccc3c(c1)CNC3)S2(=O)=O)c1ccccc1 [H1270, (S)-1-(2-(isoindolin-5-yl)-1,1-dioxidobenzo[b]thiophen-5-yl)-3-(1-phenylethyl)urea] | 25.1
COc1ccc(C(C)NC(=O)Nc2ccc3c(c2)CC(c2ccc4c(c2)CNC4)S3(=O)=O)cc1 (centres unmarked) [H1297, 1-(2-(isoindolin-5-yl)-1,1-dioxido-2,3-dihydrobenzo[b]thiophen-5-yl)-3-(1-(4-methoxyphenyl)ethyl)urea] | 23.1
CC(c1ccccc1)N1Cc2cc(S(=O)(=O)Cc3ccc4c(c3)CNC4)ccc2NC1=O (centres unmarked) [H1395, 6-((isoindolin-5-ylmethyl)sulfonyl)-3-(1-phenylethyl)-3,4-dihydroquinazolin-2(1H)-one] | 68.9

same assay, conditions: ghrelin antagonist potency, read-out: IC50 (Activity)

SMILES | IC50 [nM]
C[C@H](NC(=O)Nc1ccc(S(=O)(=O)Nc2ccc(CC(C)(C)N)cc2)cc1)c1ccc(C#CC2CC2)c(Cl)c1Cl [H0907, (S)-N-(4-(2-amino-2-methylpropyl)phenyl)-4-(3-(1-(2,3-dichloro-4-(cyclopropylethynyl)phenyl)ethyl)ureido)benzenesulfonamide] | 23.5
COc1ccc(C(C)NC(=O)Nc2ccc(S(=O)(=O)Cc3ccc(CO)cc3)cc2)c2ccccc12 (centres unmarked) [H1140, 1-(4-((4-(hydroxymethyl)benzyl)sulfonyl)phenyl)-3-(1-(4-methoxynaphthalen-1-yl)ethyl)urea] | ≥ 30000
COc1ccc(C(C)NC(=O)Nc2ccc(S(=O)(=O)Nc3ccc(CO)cc3)cc2)c2ccccc12 (centres unmarked) [H1145, N-(4-(hydroxymethyl)phenyl)-4-(3-(1-(4-methoxynaphthalen-1-yl)ethyl)ureido) benzenesulfonamide] | ≥ 30000
C[C@H](NC(=O)N(O)c1ccc(S(=O)(=O)Nc2ccc3c(c2)CNC3)cc1)c1cccc(Cl)c1Cl [H1188, (S)-4-(3-(1-(2,3-dichlorophenyl)ethyl)-1-hydroxyureido)-N-(isoindolin-5-yl)benzenesulfonamide] | 539
CC(NC(=O)N(O)c1ccc(S(=O)(=O)Nc2ccc3c(c2)CNC3)cc1)c1ccccc1 (centres unmarked) [H1199, 4-(1-hydroxy-3-(1-phenylethyl)ureido)-N-(isoindolin-5-yl)benzenesulfonamide] | 75.7
O=C(NCc1cncs1)Nc1ccc(S(=O)(=O)Cc2ccc3c(c2)CNC3)cc1 [H1208, 1-(4-((isoindolin-5-ylmethyl)sulfonyl)phenyl)-3-(thiazol-5-ylmethyl)urea] | > 30000
CC(NC(=O)N(C)c1ccc(S(=O)(=O)Cc2ccc3c(c2)CNC3)cc1)c1ccccc1 (centres unmarked) [H1213, 1-(4-((isoindolin-5-ylmethyl)sulfonyl)phenyl)-1-methyl-3-(1-phenylethyl)urea] | 4350
O=C(NCc1cscn1)Nc1ccc(S(=O)(=O)Cc2ccc3c(c2)CNC3)cc1 [H1216, 1-(4-((isoindolin-5-ylmethyl)sulfonyl)phenyl)-3-(thiazol-4-ylmethyl)urea] | 8450
C[C@H](NC(=O)Nc1ccc(S(=O)(=O)Cc2ccc(CO)cc2)cc1)c1ccccc1 [H1222, (S)-1-(4-((4-(hydroxymethyl)benzyl)sulfonyl)phenyl)-3-(1-phenylethyl)urea] | 3160
C[C@H](NC(=O)Nc1ccc(S(=O)(=O)N2CCN(C)CC2)cc1)c1ccccc1 [H1225, (S)-1-(4-((4-methylpiperazin-1-yl)sulfonyl)phenyl)-3-(1-phenylethyl)urea] | 5900
CN1Cc2ccc(CS(=O)(=O)c3ccc(NC(=O)NCC4CC4)cc3)cc2C1 [H1230, 1-(cyclopropylmethyl)-3-(4-(((2-methylisoindolin-5-yl)methyl)sulfonyl)phenyl)urea] | 6400
CC(NC(=O)Nc1ccc(S(=O)(=O)C(C)(C)c2ccc3c(c2)CN(Cc2ccccc2)C3)cc1)c1ccccc1 (centres unmarked) [H1231, 1-(4-((2-(2-benzylisoindolin-5-yl)propan-2-yl)sulfonyl)phenyl)-3-(1-phenylethyl)urea] | > 30000
C[C@H](NC(=O)Nc1ccc(S(=O)(=O)C2CCN(C)CC2)cc1)c1ccccc1 [H1237, (S)-1-(4-((1-methylpiperidin-4-yl)sulfonyl)phenyl)-3-(1-phenylethyl)urea] | > 30000
C[C@H](NC(=O)Nc1ccc(S(=O)(=O)CC2CCN(C)CC2)cc1)c1ccccc1 [H1238, (S)-1-(4-(((1-methylpiperidin-4-yl)methyl)sulfonyl)phenyl)-3-(1-phenylethyl)urea] | > 30000
C[C@H](NC(=O)Nc1ccc(S(=O)(=O)NC2CCN(C)CC2)cc1)c1ccccc1 [H1239, (S)-N-(1-methylpiperidin-4-yl)-4-(3-(1-phenylethyl)ureido) benzenesulfonamide] | > 30000
CCc1ccc(Cl)c(C(=O)NC(=O)Nc2ccc(S(=O)(=O)Cc3ccc4c(c3)CNC4)cc2)c1 [H1248, 2-chloro-5-ethyl-N-((4-((isoindolin-5-ylmethyl)sulfonyl)phenyl)carbamoyl)benzamide] | 283
O=C(NC(=O)c1cc(N2CCOCC2)ccc1Cl)Nc1ccc(S(=O)(=O)Nc2ccc3c(c2)CNC3)cc1 [H1250, 2-chloro-N-((4-((isoindolin-5-yl)sulfamoyl)phenyl)carbamoyl)-5-morpholinobenzamide] | 1370
CCOc1ccc(Cl)c(C(=O)NC(=O)Nc2ccc(S(=O)(=O)Cc3ccc4c(c3)CNC4)cc2)c1 [H1251, 2-chloro-5-ethoxy-N-((4-((isoindolin-5-ylmethyl)sulfonyl)phenyl)carbamoyl)benzamide] | 89.6
CCOc1ccc(Cl)c(C(=O)NC(=O)Nc2ccc(S(=O)(=O)Nc3ccc4c(c3)CNC4)cc2)c1 [H1252, 2-chloro-5-ethoxy-N-((4-(N-(isoindolin-5-yl)sulfamoyl)phenyl)carbamoyl) benzamide] | 440
CCc1ccc(Cl)c(C(=O)NC(=O)Nc2ccc(S(=O)(=O)Cc3ccc(CC(C)(C)N)cc3)cc2)c1 [H1253, N-((4-((4-(2-amino-2-methylpropyl)benzyl)sulfonyl)phenyl)carbamoyl)-2-chloro-5-ethylbenzamide] | 86.8

target: T2, recombinant human ghrelin receptor (HEK293/GRLN) (Homo sapiens, UniProt Q92847); test: Ghrelin inverse agonist potency (EC50) with IP-1 (IP-One HTRF) assay; type: cell-based; details: inverse agonist potency, IP-1 assay; read-out: EC50 (Activity)
T2 construct: expressed in transfected cells
T2 sequence (Q92847 whole entry): as above
Method: Evaluation of Ghrelin Inverse Agonist Potency (EC50) with IP-1 Assay:
HEK293 cells stably expressing recombinant human ghrelin receptor (HEK293/GRLN) were used in the IP-One HTRF assay. One day before the test, cells were seeded at a density of 1.5×10^4/well in a Matrigel® coated 384-well plate with 30 μL of complete Dulbecco's Modified Eagle's Medium and incubated at 37° C. in 5% CO2 for 18-22 hours. On the test day, the medium was removed by centrifugation at 600 rpm for 30 seconds, and 20 μL of stimulation buffer containing 1x tested compound was added with Bravo (Agilent technologies). The plate was then incubated at 37° C. 5% CO2 for 1 hour. After the incubation, 5 μL of IP1-d2 and 5 μL of Tb-Cryp were added to all wells using multidrop Combi(Thermo). After additional incubation at room temperature for 1 hour, the plates were read on Envision with 620 and 665 (Perkin Elmer).

SMILES | EC50 [nM]
C[C@H](NC(=O)Nc1ccc(S(=O)(=O)Nc2ccc(CC(C)(C)N)cc2)cc1)c1ccc(C#CC2CC2)c(Cl)c1Cl [H0907, (S)-N-(4-(2-amino-2-methylpropyl)phenyl)-4-(3-(1-(2,3-dichloro-4-(cyclopropylethynyl)phenyl)ethyl)ureido)benzenesulfonamide] | 1610
CCNC(=O)Nc1ccc(S(=O)(=O)Nc2ccc(CC(C)(C)N)cc2)cc1 [H0994, N-(4-(2-amino-2-methylpropyl)phenyl)-4-(3-ethylureido)benzenesulfonamide] | 1430
COc1ccc(CS(=O)(=O)c2ccc(NC(=O)N[C@@H](C)c3cccc(Cl)c3Cl)cc2)cc1 [H1083, (S)-1-(1-(2,3-dichlorophenyl)ethyl)-3-(4-((4-methoxybenzyl)sulfonyl)phenyl)urea] | 1180
C[C@H](NC(=O)Nc1ccc(S(=O)(=O)Cc2ccc3c(c2)CCOC3)cc1)c1cccc(Cl)c1Cl [H1092, (S)-1-(1-(2,3-dichlorophenyl)ethyl)-3-(4-((isochroman-6-ylmethyl)sulfonyl)phenyl)urea] | 578
